Data on seven compounds can be found in patent publication US20040127489A1, “Novel antipsychotic combination therapies and compositions useful therein” (priority 2002, published 2004).

For assay [1] the following is noted: idazoxan 120 mg/day added to 1000 mg chlorpromazine equivalents of fluphenazine; Litman et al. 1996; cited from earlier work.
For assay [2], the system named is α2 autoreceptors. To be noted: presynaptic; Martire et al. 1988; cited from earlier work.
The subject of assay [3] is α2 adrenoreceptors. To be noted: Martire et al. 1988; cited from earlier work.
Assay [4] concerns the target D2 receptor (Homo sapiens, UniProt P14416). To be noted: Merck Manual 17th Edition; cited from earlier work.
Assay [5] deals with Wistar rats. Briefly: Conditioned avoidance response (CAR) behavior in rats. In kind it is in vivo. To be noted: rat CAR; adjunct treatment with idazoxan. An excerpt: Food and water were available ad libitum.
Rats were trained and tested in a conventional, manually operated two-way active avoidance (shuttlebox) apparatus connected to a high resistance power supply. The box was divided into two compartments of equal size by a partition with one opening. Upon presentation of the 80 dB white noise conditioned stimulus (CS), the animals had 10 seconds to move from one compartment of the shuttlebox into the other. If the rat remained in the same compartment for more than 10 seconds, an intermittent electric shock (approx. 0.2 mA of 0.5-sec duration; intershock interval 2.5 sec), the unconditioned stimulus (UCS), was presented in the grid floor until an escape was performed. […] Intertrial intervals varied at random between 20 and 40 seconds. The following variables were recorded: avoidance (response to CS within 10 sec); escape (response to CS+UCS); escape failures (failure to respond); and intertrial crosses. The animals were trained for 3 consecutive days. Training sessions were run over 15 minutes. A final test session (7.5 minutes) was performed on the day immediately prior to the first experimental day, and only animals performing at the 100% correct level were assigned to the experiment. Experimental manipulations were always preceded by a pretest. […]

Assay [6] relates to α2 adrenergic receptor versus dopamine D2 receptor. To be noted: literature; cited from earlier work.

Chain of D2 receptor (P14416 whole entry): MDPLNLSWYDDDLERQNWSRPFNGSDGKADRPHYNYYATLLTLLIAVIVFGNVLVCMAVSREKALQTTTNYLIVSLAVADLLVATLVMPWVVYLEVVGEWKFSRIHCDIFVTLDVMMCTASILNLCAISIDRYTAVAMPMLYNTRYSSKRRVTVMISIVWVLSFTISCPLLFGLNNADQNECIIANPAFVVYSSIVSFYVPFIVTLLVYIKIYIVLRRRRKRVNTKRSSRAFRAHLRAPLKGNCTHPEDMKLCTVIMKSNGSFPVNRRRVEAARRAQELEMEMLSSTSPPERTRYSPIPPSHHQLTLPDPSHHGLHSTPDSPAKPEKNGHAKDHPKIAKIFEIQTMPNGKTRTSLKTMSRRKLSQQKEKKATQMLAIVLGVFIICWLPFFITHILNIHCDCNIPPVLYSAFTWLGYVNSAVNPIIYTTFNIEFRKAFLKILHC

In the case of `c1ccc2c(c1)OCC(C1=NCCN1)O2` (racemic) [idazoxan, ±-2-(1,4-benzodioxan-2-yl)-d-imidazoline], the clinical response entry in assay [1] is recorded as “adequate clinical responses”.

`c1ccc2c(c1)OCC(C1=NCCN1)O2` (single isomer, unassigned; (+)) [(+)-idazoxan]: the “affinity towards the α2 autoreceptors relative to (−) idazoxan” value in assay [2] is reported as 40 times. Moreover, the “potency in inhibiting p-[3H]aminoclonidine binding relative to (−) idazoxan” value in assay [3] was 7-8 times.

Turning to `OCCN1CCN(CCCN2c3ccccc3Sc3ccc(C(F)(F)F)cc32)CC1` [fluophenazine, fluphenazine], the “dose corresponding to 1000 mg chlorpromazine equivalents” value (“dose corresponding” for short) in assay [4] is reported as 20 mg.

`Cc1cc2c(s1)Nc1ccccc1N=C2N1CCN(C)CC1` [olanzapine]: the “reduction of the olanzapine dose required for an effective antipsychotic effect through adjunct idazoxan” value in assay [5] is approximately 50%.

As to `OCCOCCN1CCN(C2=Nc3ccccc3Sc3ccccc32)CC1` [quetiapine], the “dose corresponding” value in assay [4] is 900 mg.

As for `O=C1NCCN1CCN1CCC(c2cn(-c3ccc(F)cc3)c3ccc(Cl)cc23)CC1` [sertindole], the “dose corresponding” value in assay [4] is given as 24 mg.

Take `O=C1Cc2cc(CCN3CCN(c4nsc5ccccc45)CC3)c(Cl)cc2N1` [ziprasidone]: the “fold less affinity for the α2 adrenergic receptor than for the dopamine D2 receptor” value in assay [6] is 100 fold.
